Experimental data taken from the supplement of paper PMC10307832.

Legend:
Test in all cases: relative viability (nuclei count vs DMSO), 5 days (fraction); higher = more cells survive
[1] = system: COR-L23
Outline: (§1)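 For relative viability, nuclei counts in treated wells were divided by those in vehicle wells. Lung cancer cell lines had been pin-tool dosed in 1536-well plates the day after seeding and cultured for 5 days, then fixed and stained in one step (final 0.05% Triton X-100, 1% formaldehyde, 1 ug/ml Hoechst) and imaged at 4×. Doses were one drug alone or a fixed anchor-drug dose plus five library-drug doses (not always all listed) in √10 steps, and values are duplicate-plate medians.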

[2] = system: ChaGo-K-1
Outline: as §1

[3] = system: EPLC-272H
Outline: as §1

[4] = system: H3255
Outline: as §1

[5] = system: HARA
Outline: as §1

[6] = system: HCC-78
Outline: as §1

[7] = system: HOP-62
Outline: as §1

[8] = system: LCLC-97TM1
Outline: as §1

[9] = system: LXF-289
Outline: as §1

[10] = system: NCI-H1437
Outline: as §1

[11] = system: NCI-H1650
Outline: as §1

[12] = system: NCI-H1666
Outline: as §1

[13] = system: NCI-H2085
Outline: as §1

[14] = system: NCI-H2087
Outline: as §1

[15] = system: NCI-H2126
Outline: as §1

[16] = system: NCI-H3122
Outline: as §1

[17] = system: NCI-H441
Outline: as §1

[18] = system: NCI-H596
Outline: as §1

[19] = system: NCI-H661
Outline: as §1

[20] = system: PC-14
Outline: as §1

In the case of `Nc1cccc2c1CN(C1CCC(=O)NC1=O)C2=O` (stereo not drawn) [Lenalidomide] + CC(C)C[C@H](NC(=O)[C@H](Cc1ccccc1)NC(=O)c1cnccn1)B(O)O [Bortezomib] (partner 0.002 µM), the relative viability ([1]; first compound 0.253 µM) is reported as 0.994, the relative viability ([1]; first compound 0.8 µM) is reported as 1.11 and the relative viability ([1]; first compound 2.53 µM) is reported as 1.07. It also gave a relative viability ([1]; first compound 8 µM) of 1.17, a relative viability ([2]; first compound 0.253 µM) of 1.07 and a relative viability ([2]; first compound 2.53 µM) of 1. It also gave a relative viability ([2]; first compound 8 µM) of 1.29, a relative viability ([3]; first compound 0.253 µM) of 0.876 and a relative viability ([3]; first compound 2.53 µM) of 1.03. For the same compound, the relative viability ([3]; first compound 8 µM) was 0.999, the relative viability ([4]; first compound 0.253 µM) was 0.886 and the relative viability ([4]; first compound 0.8 µM) was 0.612. It also gave a relative viability ([4]; first compound 2.53 µM) of 0.874, a relative viability ([4]; first compound 8 µM) of 0.828 and a relative viability ([5]; first compound 0.253 µM) of 1.07. For the same compound, the relative viability ([5]; first compound 0.8 µM) was 0.657, the relative viability ([5]; first compound 2.53 µM) was 1.24 and the relative viability ([5]; first compound 8 µM) was 1.19. It also gave a relative viability ([6]; first compound 0.253 µM) of 0.469, a relative viability ([6]; first compound 0.8 µM) of 0.368 and a relative viability ([6]; first compound 2.53 µM) of 0.461. It also gave a relative viability ([6]; first compound 8 µM) of 0.392, a relative viability ([7]; first compound 0.253 µM) of 0.701 and a relative viability ([7]; first compound 0.8 µM) of 0.417. For the same compound, the relative viability ([7]; first compound 2.53 µM) was 1.06, the relative viability ([7]; first compound 8 µM) was 0.722 and the relative viability ([8]; first compound 0.253 µM) was 0.673. The relative viability ([8]; first compound 0.8 µM) was 0.514, the relative viability ([8]; first compound 2.53 µM) was 0.705 and the relative viability ([8]; first compound 8 µM) was 0.416. It also gave a relative viability ([9]; first compound 0.253 µM) of 0.958, a relative viability ([9]; first compound 0.8 µM) of 0.98 and a relative viability ([9]; first compound 2.53 µM) of 1.07. It also gave a relative viability ([9]; first compound 8 µM) of 1.08, a relative viability ([10]; first compound 0.253 µM) of 0.523 and a relative viability ([10]; first compound 0.8 µM) of 0.571. For the same compound, the relative viability ([10]; first compound 2.53 µM) was 0.95, the relative viability ([10]; first compound 8 µM) was 0.501 and the relative viability ([11]; first compound 0.253 µM) was 0.197. It also gave a relative viability ([11]; first compound 0.8 µM) of 0.189, a relative viability ([11]; first compound 2.53 µM) of 0.213 and a relative viability ([11]; first compound 8 µM) of 0.198. It also gave a relative viability ([12]; first compound 0.253 µM) of 0.816, a relative viability ([12]; first compound 0.8 µM) of 0.544 and a relative viability ([12]; first compound 2.53 µM) of 0.813. The relative viability ([12]; first compound 8 µM) was 0.762, the relative viability ([13]; first compound 0.253 µM) was 1.05 and the relative viability ([13]; first compound 0.8 µM) was 0.818. It also gave a relative viability ([13]; first compound 2.53 µM) of 1.11, a relative viability ([13]; first compound 8 µM) of 0.881 and a relative viability ([14]; first compound 0.253 µM) of 0.772. It also gave a relative viability ([14]; first compound 0.8 µM) of 0.656, a relative viability ([14]; first compound 2.53 µM) of 0.922 and a relative viability ([14]; first compound 8 µM) of 0.835. The relative viability ([15]; first compound 0.253 µM) was 1.17, the relative viability ([15]; first compound 0.8 µM) was 0.971 and the relative viability ([15]; first compound 2.53 µM) was 1.12. For the same compound, the relative viability ([15]; first compound 8 µM) was 1.1, the relative viability ([16]; first compound 0.253 µM) was 1.04 and the relative viability ([16]; first compound 0.8 µM) was 1.05. The relative viability ([16]; first compound 2.53 µM) was 0.98, the relative viability ([16]; first compound 8 µM) was 1.13 and the relative viability ([17]; first compound 0.253 µM) was 0.347. The relative viability ([17]; first compound 0.8 µM) was 0.383, the relative viability ([17]; first compound 2.53 µM) was 0.529 and the relative viability ([17]; first compound 8 µM) was 0.485. For the same compound, the relative viability ([18]; first compound 0.253 µM) was 0.933, the relative viability ([18]; first compound 0.8 µM) was 0.733 and the relative viability ([18]; first compound 2.53 µM) was 1.39. It also gave a relative viability ([18]; first compound 8 µM) of 0.883, a relative viability ([19]; first compound 0.253 µM) of 0.7 and a relative viability ([19]; first compound 0.8 µM) of 0.75. It also gave a relative viability ([19]; first compound 2.53 µM) of 0.794, a relative viability ([19]; first compound 8 µM) of 0.755 and a relative viability ([20]; first compound 0.253 µM) of 0.779. For the same compound, the relative viability ([20]; first compound 0.8 µM) was 0.802, the relative viability ([20]; first compound 2.53 µM) was 0.905 and the relative viability ([20]; first compound 8 µM) was 0.854.
